Experimental data reported in US10597674B2, “HPPD variants and methods of use” (BASF Agricultural Solutions Seed, US LLC, priority 2015, dated 2020).

Assays:
[1] = system: transgenic soybean T0 events; experiment: Greenhouse spray test of T0 soybean events, herbicide tolerance rating 0-3; type: in vivo; settings: wild-type soybean plants, 300 g AI/ha, 5 days after spraying
Method: Tolerant green shoots were transferred to rooting media or grafted. Rooted plantlets were transferred to the greenhouse after an acclimation period. Plants containing the transgene were then sprayed with HPPD inhibitor herbicides, as for example with mesotrione at a rate of 300-600 g AI/ha, or with Cmpd. […] Five to ten days after the application, the symptoms due to the application of the herbicide were evaluated and compared to the symptoms observed on wild-type plants under the same conditions.
For example, T0 soybean plants having a “plant expression cassette”, which includes an HPPD inhibitor tolerant HPPD polypeptide of the present invention, were tested towards the tolerance of Cmpd. 1.
Prior greenhouse trials with the transgenic plants, soybean transformants were routinely analyzed for the expression and presence of the transgenes using the ELISA protein detection method (see detailed description under item D and H). Only plants recovering in the selection media and having a detectable HPPD transgene protein expression were used for the herbicide tolerance analysis. A DeVries Tracker Sprayer was calibrated prior to each spraying. The chemical formulation used for Cmpd. 1 was supplemented with ammonium sulfate and methylated rape seed oil. Spray tests were conducted with a concentration, which equals to 300 grams AI per hectare (300 g AI/ha). Tolerance was evaluated 5 days after spraying. […] A rating of “3” was assigned to plants showing good tolerance, i.e. less than 10% of the leaf area from the top three trifoliate leaves showing chlorosis or only very slight bleaching.

[2] = system: E. coli cells expressing an HPPD polypeptide; experiment: Brown color bioassay in liquid culture, residual brown color formation (BCF), OD440 after 96 hours; type: cell-based
Method in brief: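 E. coli expressing HPPD variants were grown at 30 degrees Celsius from OD600 0.3-0.5 in LB with 5 mM HPP, with or without herbicide (e.g. Cmpd. 1, 1000 μM). After 96 hours, supernatant OD440 was measured; residual brown colour formation compares pigment with and without inhibitor.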

[3] = system: transgenic soybean T0 events; experiment: Additional greenhouse trials of T0 soybean events, leaf damage score 0-100 as percentiles; type: in vivo; settings: wild-type plants, 300 g AI/ha, five days, scale 0-100
Method in brief: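 Independent T0 events (21 to 94 per construct, single cassette insertion) expressing mutant HPPD were sprayed with HPPD inhibitor herbicide in the greenhouse. Leaf damage scored 5 days after application from 0 (no damage) to 100 (complete bleaching). Scores reported as percentile distributions (25th, median, 75th) per construct.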

CSc1c(C(F)(F)F)ccc(C(=O)Nc2nnnn2C)c1Cl [Cmpd. 1, 2-chloro-3-(methylsulfanyl)-N-(1-methyl-1H-tetrazol-5-yl)-4-(trifluoromethyl)benzamide, reference compound]
leaf damage of the top two trifoliate leaves [1]: more than 95% | Control BCF OD440nm ([2]; brown color formation in absence of Cmpd. 1, culture supernatant after 96 hours, 5 mM HPP): 2.66 | Residual BCF OD440nm [%] ([2]; brown color formation with Cmpd. 1 (1000 μM) relative to without, after 96 hours): 15% | damage score [3]: 95-100
